pIC50: −log10 of the molar value.
How the values were obtained:
Format in all cases: biochemical
TYK2 = TYK2 (Homo sapiens (Human), UniProt P29597); assay: JAK Caliper Enzyme Assay at 1 mM ATP, TYK2
Description: (§1) Compounds of the invention were evaluated by in vitro methods to determine their respective ability to inhibit the JAK kinases (TYK2, JAK1, JAK2, JAK3).
(§2) The human JAK inhibitory activity was determined by using a microfluidic assay to monitor phosphorylation of a synthetic peptide by the recombinant human kinase domain of each of the four members of the JAK family, JAK1, JAK2, JAK3 and TYK2. […] Each assay condition was optimized for enzyme concentration and room temperature incubation time to obtain a conversion rate of 20% to 30% phosphorylated peptide product. Reactions were terminated by the addition of stop buffer containing EDTA. Utilizing the LabChip 3000 mobility shift technology (Caliper Life Science), each assay reaction was sampled to determine the level of phosphorylation. This technology is separation-based, allowing direct detection of fluorescently labeled substrates and products. Separations are controlled by a combination of vacuum pressure and electric field strength optimized for each peptide substrate.
(§3) JAK Caliper Enzyme Assay at 1mM ATP
(§4) Compounds were added to a 384-well plate.
(§5) The data was collected using the HTS Well Analyzer software from Caliper Life Sciences. The data output for data analysis is the percent product converted calculated on peak height (Equation 1). % product converted=100*((product)/(product+substrate)) Equation 1: […]
(§6) The percent effect at each compound concentration was calculated based on the positive and negative control well contained within each assay plate (Equation 2). […] The negative control wells contained DMSO alone (at the same concentration as the compound wells) that was used to set the baseline activity in the assay (i.e., uninhibited JAK1, JAK2, JAK3 or TYK2). % effect=100*([…](positive control-negative control)) Equation 2: […]
(§7) The percent effect was plotted against the compound concentration compound.

JAK1 = JAK1 (Homo sapiens (Human), UniProt P23458); assay: JAK Caliper Enzyme Assay at 1 mM ATP, JAK1
Description: as §1, §2, §3, §4, §5, §6, §7

JAK2 = JAK2 (Homo sapiens (Human), UniProt O60674); assay: JAK Caliper Enzyme Assay at 1 mM ATP, JAK2
Description: as §1, §2, §3, §4, §5, §6, §7

JAK3 = JAK3 (Homo sapiens (Human), UniProt P52333); assay: JAK Caliper Enzyme Assay at 1 mM ATP, JAK3
Description: as §1, §2, §3, §4, §5, §6, §7

Chain of TYK2 (P29597 897-1176): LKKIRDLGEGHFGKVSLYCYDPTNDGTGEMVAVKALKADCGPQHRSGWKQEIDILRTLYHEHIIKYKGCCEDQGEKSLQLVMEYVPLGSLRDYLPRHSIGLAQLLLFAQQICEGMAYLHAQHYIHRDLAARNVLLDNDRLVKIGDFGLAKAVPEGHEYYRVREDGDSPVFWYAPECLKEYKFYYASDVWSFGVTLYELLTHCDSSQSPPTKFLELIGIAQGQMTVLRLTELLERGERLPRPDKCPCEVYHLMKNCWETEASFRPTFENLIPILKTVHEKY
Chain of JAK3 (P52333 822-1111): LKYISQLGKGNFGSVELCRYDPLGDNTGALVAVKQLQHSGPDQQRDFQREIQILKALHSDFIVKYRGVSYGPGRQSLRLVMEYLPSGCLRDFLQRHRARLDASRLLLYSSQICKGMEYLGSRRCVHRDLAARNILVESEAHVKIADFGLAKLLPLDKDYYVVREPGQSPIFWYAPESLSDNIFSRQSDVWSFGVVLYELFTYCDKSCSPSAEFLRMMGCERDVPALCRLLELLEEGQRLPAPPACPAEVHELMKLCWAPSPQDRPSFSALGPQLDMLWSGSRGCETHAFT
Chain of JAK1 (P23458 875-1153): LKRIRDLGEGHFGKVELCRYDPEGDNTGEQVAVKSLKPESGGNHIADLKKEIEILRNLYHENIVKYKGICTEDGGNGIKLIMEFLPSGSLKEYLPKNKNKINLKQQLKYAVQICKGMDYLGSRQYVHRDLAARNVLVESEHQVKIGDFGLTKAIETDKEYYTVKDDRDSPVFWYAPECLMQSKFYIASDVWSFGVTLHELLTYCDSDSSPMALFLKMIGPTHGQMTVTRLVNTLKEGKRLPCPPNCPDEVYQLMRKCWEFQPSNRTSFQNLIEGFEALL
Chain of JAK2 (O60674 849-1124): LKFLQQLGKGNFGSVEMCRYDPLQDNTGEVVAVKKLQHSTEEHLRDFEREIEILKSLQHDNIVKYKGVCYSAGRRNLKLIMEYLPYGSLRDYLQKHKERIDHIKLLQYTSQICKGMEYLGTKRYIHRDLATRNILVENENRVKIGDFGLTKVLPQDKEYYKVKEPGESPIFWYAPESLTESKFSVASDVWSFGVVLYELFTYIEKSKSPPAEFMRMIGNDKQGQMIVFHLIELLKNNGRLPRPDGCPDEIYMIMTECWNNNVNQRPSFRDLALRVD

SMILES: CO[C@H]1C[C@@](CC#N)(n2cc(-c3nc(-c4cnn(CCO)c4)cc4ncccc34)cn2)C1 [Example 8, [cis-1-(4-{7-[1-(2-hydroxyethyl)-1H-pyrazol-4-yl]-1,6-naphthyridin-5-yl}-1H-pyrazol-1-yl)-3-methoxycyclobutyl]acetonitrile]
- pIC50 (TYK2): 6.89
- pIC50 (JAK1): 6.18
- pIC50 (JAK2): 6.90
- pIC50 (JAK3): < 5.00

SMILES: CO[C@H]1C[C@](CC#N)(n2cc(-c3nc(-c4cnn(CCO)c4)cc4ncccc34)cn2)C1 [Example 9, [trans-1-(4-{7-[1-(2-hydroxyethyl)-1H-pyrazol-4-yl]-1,6-naphthyridin-5-yl}-1H-pyrazol-1-yl)-3-methoxycyclobutyl]acetonitrile]
- pIC50 (TYK2): 7.11
- pIC50 (JAK1): 6.28
- pIC50 (JAK2): 6.97
- pIC50 (JAK3): < 5.00

SMILES: N#CCC1(n2cc(-c3nc(-c4cnn(C5CCOCC5)c4)cc4ncccc34)cn2)CN(CC(F)(F)F)C1 [Example 11, [3-(4-{7-[1-(tetrahydro-2H-pyran-4-yl)-1H-pyrazol-4-yl]-1,6-naphthyridin-5-yl}-1H-pyrazol-1-yl)-1-(2,2,2-trifluoroethyl)azetidin-3-yl]acetonitrile]
- pIC50 (TYK2): 7.68
- pIC50 (JAK1): 7.15
- pIC50 (JAK2): 7.85
- pIC50 (JAK3): 5.58

SMILES: CO[C@H]1C[C@@](CC#N)(n2cc(-c3nc(-c4cc(CO)n[nH]4)cc4ncccc34)cn2)C1 [Example 12, [cis-1-(4-{7-[3-(hydroxymethyl)-1H-pyrazol-5-yl]-1,6-naphthyridin-5-yl}-1H-pyrazol-1-yl)-3-methoxycyclobutyl]acetonitrile]
- pIC50 (TYK2): 7.20
- pIC50 (JAK1): 6.39
- pIC50 (JAK2): 7.00
- pIC50 (JAK3): < 5.00

SMILES: CO[C@H]1C[C@](CC#N)(n2cc(-c3nc(-c4cc(CO)n[nH]4)cc4ncccc34)cn2)C1 [Example 13, [trans-1-(4-{7-[3-(hydroxymethyl)-1H-pyrazol-5-yl]-1,6-naphthyridin-5-yl}-1H-pyrazol-1-yl)-3-methoxycyclobutyl]acetonitrile]
- pIC50 (TYK2): 7.38
- pIC50 (JAK1): 6.58
- pIC50 (JAK2): 7.09
- pIC50 (JAK3): < 5.00

SMILES: N#CCC1(n2ccc(-c3nc(Cl)cc4ncccc34)n2)CN(CC(F)(F)F)C1 [Example 14, {3-[3-(7-chloro-1,6-naphthyridin-5-yl)-1H-pyrazol-1-yl]-1-(2,2,2-trifluoroethyl)azetidin-3-yl}acetonitrile]
- pIC50 (TYK2): 5.83
- pIC50 (JAK1): 5.05
- pIC50 (JAK2): < 5.00
- pIC50 (JAK3): < 5.00

SMILES: N#CCC1(n2ccc(-c3nccc4ncccc34)n2)CN(CC(F)(F)F)C1 [Example 15, {3-[3-(1,6-naphthyridin-5-yl)-1H-pyrazol-1-yl]-1-(2,2,2-trifluoroethyl)azetidin-3-yl}acetonitrile]
- pIC50 (TYK2): 5.11
- pIC50 (JAK1): < 5.00
- pIC50 (JAK2): < 5.00
- pIC50 (JAK3): < 5.00

SMILES: N#CCC1(n2ccc(-c3nc(-c4cc[nH]n4)cc4ncccc34)n2)CN(CC(F)(F)F)C1 [Example 16, [3-{3-[7-(1H-pyrazol-3-yl)-1,6-naphthyridin-5-yl]-1H-pyrazol-1-yl}-1-(2,2,2-trifluoroethyl)azetidin-3-yl]acetonitrile]
- pIC50 (TYK2): 7.64
- pIC50 (JAK1): 6.32
- pIC50 (JAK2): 6.37
- pIC50 (JAK3): < 5.00

SMILES: CS(=O)(=O)N1CC(CC#N)(n2ccc(-c3nc(-c4ccn[nH]4)cc4ncccc34)n2)C1 [Example 17, [1-(methylsulfonyl)-3-{3-[7-(1H-pyrazol-5-yl)-1,6-naphthyridin-5-yl]-1H-pyrazol-1-yl}azetidin-3-yl]acetonitrile]
- pIC50 (TYK2): 7.36
- pIC50 (JAK1): 5.99
- pIC50 (JAK2): 6.33
- pIC50 (JAK3): < 5.00

SMILES: N#CCC1(n2ccc(-c3nc(-c4ccn[nH]4)cc4ncccc34)n2)CN(S(=O)(=O)C2COC2)C1 [Example 19, [1-(oxetan-3-ylsulfonyl)-3-{3-[7-(1H-pyrazol-5-yl)-1,6-naphthyridin-5-yl]-1H-pyrazol-1-yl}azetidin-3-yl]acetonitrile]
- pIC50 (TYK2): 7.59
- pIC50 (JAK1): 6.76
- pIC50 (JAK2): 6.73
- pIC50 (JAK3): 5.00

SMILES: N#CC[C@]1(n2ccc(-c3nc(-c4ccn[nH]4)cc4ncccc34)n2)C[C@H](C#N)C1 [Example 20, trans-3-(cyanomethyl)-3-{3-[7-(1H-pyrazol-5-yl)-1,6-naphthyridin-5-yl]-1H-pyrazol-1-yl}cyclobutanecarbonitrile]
- pIC50 (TYK2): 7.60
- pIC50 (JAK1): 6.42
- pIC50 (JAK2): 6.62
- pIC50 (JAK3): < 5.00

SMILES: N#CCC1(n2ccc(-c3nc(-c4ccn[nH]4)cc4ncccc34)n2)CC(C#N)C1 (stereo not drawn) [Example 21, cis-3-(cyanomethyl)-3-{3-[7-(1H-pyrazol-5-yl)-1,6-naphthyridin-5-yl]-1H-pyrazol-1-yl}cyclobutanecarbonitrile]
- pIC50 (TYK2): 8.05
- pIC50 (JAK1): 7.15
- pIC50 (JAK2): 7.30
- pIC50 (JAK3): 5.17

SMILES: N#CC[C@H]1C[C@](CC#N)(n2ccc(-c3nc(-c4ccn[nH]4)cc4ncccc34)n2)C1 [Example 22, 2,2′-(trans-1-{3-[7-(1H-pyrazol-5-yl)-1,6-naphthyridin-5-yl]-1H-pyrazol-1-yl}cyclobutane-1,3-diyl)diacetonitrile]
- pIC50 (TYK2): 7.21
- pIC50 (JAK1): 6.08
- pIC50 (JAK2): 6.05
- pIC50 (JAK3): < 5.00

SMILES: N#CCC1CC(CC#N)(n2ccc(-c3nc(-c4ccn[nH]4)cc4ncccc34)n2)C1 (stereo not drawn) [Example 23, 2,2′-(cis-1-{3-[7-(1H-pyrazol-5-yl)-1,6-naphthyridin-5-yl]-1H-pyrazol-1-yl}cyclobutane-1,3-diyl)diacetonitrile]
- pIC50 (TYK2): 7.82
- pIC50 (JAK1): 6.49
- pIC50 (JAK2): 6.67
- pIC50 (JAK3): < 5.00

SMILES: N#CC[C@]1(n2ccc(-c3nc(-c4cc[nH]n4)cc4ncccc34)n2)C[C@@H](C(N)=O)C1 [Example 24, cis-3-(cyanomethyl)-3-{3-[7-(1H-pyrazol-3-yl)-1,6-naphthyridin-5-yl]-1H-pyrazol-1-yl}cyclobutanecarboxamide]
- pIC50 (TYK2): 6.78
- pIC50 (JAK1): 5.44
- pIC50 (JAK2): 5.77
- pIC50 (JAK3): < 5.00

SMILES: N#CCC1(n2ccc(-c3nc(-c4ccn[nH]4)cc4ncccc34)n2)CC(C(N)=O)C1 (stereo not drawn) [Example 25, trans-3-(cyanomethyl)-3-{3-[7-(1H-pyrazol-5-yl)-1,6-naphthyridin-5-yl]-1H-pyrazol-1-yl}cyclobutanecarboxamide]
- pIC50 (TYK2): 5.78
- pIC50 (JAK1): < 5.00
- pIC50 (JAK2): 5.06
- pIC50 (JAK3): < 5.00

SMILES: CNC(=O)C1CC(CC#N)(n2ccc(-c3nc(-c4cc[nH]n4)cc4ncccc34)n2)C1 (stereo not drawn) [Example 26, cis-3-(cyanomethyl)-N-methyl-3-{3-[7-(1H-pyrazol-3-yl)-1,6-naphthyridin-5-yl]-1H-pyrazol-1-yl}cyclobutanecarboxamide]
- pIC50 (TYK2): 5.83
- pIC50 (JAK1): 5.22
- pIC50 (JAK2): 5.41
- pIC50 (JAK3): < 5.00

SMILES: CNC(=O)[C@H]1C[C@](CC#N)(n2ccc(-c3nc(-c4ccn[nH]4)cc4ncccc34)n2)C1 [Example 27, trans-3-(cyanomethyl)-N-methyl-3-{3-[7-(1H-pyrazol-5-yl)-1,6-naphthyridin-5-yl]-1H-pyrazol-1-yl}cyclobutanecarboxamide]
- pIC50 (TYK2): 5.12
- pIC50 (JAK1): < 5.00
- pIC50 (JAK2): < 5.00
- pIC50 (JAK3): < 5.00

SMILES: N#CCC1(n2ccc(-c3nc(-c4ccn[nH]4)cc4ncccc34)n2)CC(CO)C1 (stereo not drawn) [Example 28, [trans-3-(hydroxymethyl)-1-{3-[7-(1H-pyrazol-5-yl)-1,6-naphthyridin-5-yl]-pyrazol-1-yl}cyclobutyl]acetonitrile]
- pIC50 (TYK2): 6.68
- pIC50 (JAK1): 5.59
- pIC50 (JAK2): 5.75
- pIC50 (JAK3): < 5.00

SMILES: N#CCC1(n2ccc(-c3nc(-c4ccn[nH]4)cc4ncccc34)n2)CC(CO)C1 (stereo not drawn) [Example 29, [cis-3-(hydroxymethyl)-1-{3-[7-(1H-pyrazol-5-yl)-1,6-naphthyridin-5-yl]-1H-pyrazol-1-yl}cyclobutyl]acetonitrile]
- pIC50 (TYK2): 6.36
- pIC50 (JAK1): 5.42
- pIC50 (JAK2): 5.63
- pIC50 (JAK3): < 5.00

SMILES: CO[C@H]1C[C@](CC#N)(n2ccc(-c3nc(-c4ccn[nH]4)cc4ncccc34)n2)C1 [Example 30, (trans-3-methoxy-1-{3-[7-(1H-pyrazol-5-yl)-1,6-naphthyridin-5-yl]-1H-pyrazol-1-yl}cyclobutyl)acetonitrile]
- pIC50 (TYK2): 7.12
- pIC50 (JAK1): 5.71
- pIC50 (JAK2): 5.75
- pIC50 (JAK3): < 5.00

SMILES: CO[C@H]1C[C@@](CC#N)(n2ccc(-c3nc(-c4ccn[nH]4)cc4ncccc34)n2)C1 [Example 31, (cis-3-methoxy-1-{3-[7-(1H-pyrazol-5-yl)-1,6-naphthyridin-5-yl]-1H-pyrazol-1-yl}cyclobutyl)acetonitrile]
- pIC50 (TYK2): 7.28
- pIC50 (JAK1): 5.74
- pIC50 (JAK2): 6.02
- pIC50 (JAK3): < 5.00

SMILES: CC(=O)NC1CC(CC#N)(n2ccc(-c3nc(-c4cc[nH]n4)cc4ncccc34)n2)C1 (stereo not drawn) [Example 32, N-[trans-3-(cyanomethyl)-3-{3-[7-(1H-pyrazol-3-yl)-1,6-naphthyridin-5-yl]-pyrazol-1-yl}cyclobutyl]acetamide]
- pIC50 (TYK2): 6.14
- pIC50 (JAK1): 5.23
- pIC50 (JAK2): 5.46
- pIC50 (JAK3): < 5.00
